GI50 and TGI data for seven molecules are collected here from PubChem BioAssay (NCI).

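Five concentrations, 48 hours, 96-well plates. GI50 is the concentration that inhibits growth by half. TGI is the concentration that stops growth completely.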 Where only a bound is given, the exact number is not on record here.

Some test systems named below: HS 578T breast; HCT-116 colon; SF-295 CNS; NCI-H23 lung; SW-620 colon; SK-MEL-28 melanoma; SNB-19 CNS; MCF7 breast; LOX IMVI melanoma; TK-10 renal.
Common to all, as to assay: growth of human tumour cells (NCI), 48 h

Turning to `COc1ccc2c(c1)C(=O)c1c-2c(=O)n(CCCN(C)C)c2cc(OC)c(OC)cc12`, the GI50 was 16.2 µM with HS 578T breast; 4.53 µM in the test on HCT-116 colon; 0.158 µM in the test with SF-295 CNS; 6.48 µM in the test on NCI-H23 lung; 1.71 µM in the test with SW-620 colon; 17.9 µM with SK-MEL-28 melanoma. The GI50 was 3.3 µM in the test with SNB-19 CNS, 0.141 µM with MCF7 breast, 1.6 µM in the test on LOX IMVI melanoma and 15.5 µM in the test on TK-10 renal. Further, the TGI in the test on HS 578T breast was 36.7 µM; in the test with HCT-116 colon, 21.4 µM; in the test on SF-295 CNS, 0.774 µM; with NCI-H23 lung, 24.5 µM; in the test on SW-620 colon it was 20.8 µM; in the test on SK-MEL-28 melanoma it was 32 µM. Further, the TGI came to 20.6 µM in the test on SNB-19 CNS, 15.3 µM in the test with MCF7 breast, 15.6 µM in the test on LOX IMVI melanoma and 29.3 µM in the test on TK-10 renal.

As to `N#Cc1cc2c(cc1Cl)Sc1nnc(Nc3cccc4ccccc34)n1S2(=O)=O`, the GI50 in the test with HS 578T breast is 2.89 µM; with HCT-116 colon, 3.98 µM; in the test with SF-295 CNS, 16.8 µM; in the test on NCI-H23 lung, 1.8 µM; with SW-620 colon, 3.61 µM; in the test with SK-MEL-28 melanoma, 5.05 µM. The GI50 was 1.89 µM in the test on SNB-19 CNS, 2.1 µM with MCF7 breast, 3.17 µM in the test with LOX IMVI melanoma and 1.91 µM in the test on TK-10 renal. The TGI in the test on HS 578T breast was 9.74 µM; with HCT-116 colon, 14.2 µM; in the test on SF-295 CNS it was 31.8 µM; with NCI-H23 lung, 3.43 µM; with SW-620 colon, 12.3 µM; in the test on SK-MEL-28 melanoma, 16.3 µM. In addition, the TGI came to 4.29 µM in the test with SNB-19 CNS, 4.8 µM in the test on MCF7 breast, 10.3 µM in the test with LOX IMVI melanoma and 5.07 µM with TK-10 renal.

As to `c1ccc(C2CCCCC2)c(OCCCCCN2CCNCC2)c1`, the GI50 in the test on HS 578T breast is 3.61 µM; in the test with HCT-116 colon, 1.65 µM; in the test with SF-295 CNS, 2.36 µM; in the test with NCI-H23 lung, 5.72 µM; with SW-620 colon it was 1.82 µM; in the test with SK-MEL-28 melanoma it was 1.81 µM. Also, the GI50 with SNB-19 CNS is 3.49 µM; in the test on MCF7 breast, 1.89 µM; in the test with LOX IMVI melanoma, 1.59 µM; in the test on TK-10 renal, 5.67 µM. Moreover, the TGI with HS 578T breast came out at 22.1 µM; in the test on HCT-116 colon it was 4.19 µM; with SF-295 CNS, 6.04 µM; in the test with NCI-H23 lung, 22.2 µM; in the test with SW-620 colon it was 3.8 µM; in the test on SK-MEL-28 melanoma, 3.57 µM. Besides, the TGI in the test on SNB-19 CNS stood at 14.4 µM; in the test with MCF7 breast, 4.36 µM; in the test with LOX IMVI melanoma, 3.01 µM; in the test with TK-10 renal, 19.3 µM.

As to `c1ccc(CN2COc3c(ccc4c5c(ccc34)CN(Cc3ccccc3)CO5)C2)cc1`, the TGI in the test with HS 578T breast, in the test with HCT-116 colon, with SF-295 CNS, in the test on NCI-H23 lung, in the test with SW-620 colon and with SK-MEL-28 melanoma was greater than 100 µM in each case. Besides, the TGI in the test on SNB-19 CNS, in the test with MCF7 breast, with LOX IMVI melanoma and with TK-10 renal was greater than 100 µM in each case.

On to `CN(C)CCCn1c2c(c3cc4c(cc3c1=O)OCO4)C(=O)c1ccccc1-2`, for which the GI50 in the test with HS 578T breast was 11.5 µM; in the test on SF-295 CNS, 3.12 µM; in the test on NCI-H23 lung it was 0.231 µM; in the test on SW-620 colon it was 0.85 µM; with SK-MEL-28 melanoma it was 4.68 µM; in the test on SNB-19 CNS it was 2.84 µM. Further, the GI50 in the test with MCF7 breast is 6.84 µM; with LOX IMVI melanoma, 0.0635 µM; with TK-10 renal, 3.42 µM. Moreover, the TGI was 43.4 µM in the test with HS 578T breast; 0.384 µM in the test with HCT-116 colon; 12.5 µM in the test with SF-295 CNS; greater than 39.9 µM with SW-620 colon; greater than 100 µM with SK-MEL-28 melanoma; greater than 100 µM in the test on SNB-19 CNS. In addition, the values for the TGI with MCF7 breast, in the test on LOX IMVI melanoma and in the test with TK-10 renal were greater than 26.8 µM, 0.557 µM and 17.9 µM, respectively.

As to `NC(=O)CC(N)c1nn[nH]n1` (stereo not drawn), the TGI in the test with HS 578T breast, in the test with HCT-116 colon, in the test on SF-295 CNS, in the test on NCI-H23 lung, with SW-620 colon and in the test with SK-MEL-28 melanoma was greater than 100 µM in each case. Further, the TGI with SNB-19 CNS, in the test on MCF7 breast, with LOX IMVI melanoma and with TK-10 renal was greater than 100 µM each time.

Take `COc1ccc(/C=N\Nc2nc(SCC(C)C)nc(-c3ccc(OC)cc3)c2C#N)cc1`: the GI50 in the test on HS 578T breast was 3.98 µM; in the test on HCT-116 colon, 0.679 µM; in the test on SF-295 CNS, 8.58 µM; in the test with NCI-H23 lung, 12.2 µM; with SW-620 colon it was 5.15 µM; with SK-MEL-28 melanoma, 30.8 µM. Moreover, the GI50 was 6.81 µM with SNB-19 CNS, 13.8 µM with MCF7 breast, 18.2 µM in the test with LOX IMVI melanoma and 2.02 µM in the test on TK-10 renal. The TGI in the test with HS 578T breast is 30.9 µM; in the test on HCT-116 colon, 15.3 µM; in the test on SF-295 CNS, 28 µM; with NCI-H23 lung, 31.7 µM; in the test on SW-620 colon it was greater than 100 µM; with SK-MEL-28 melanoma it was greater than 100 µM. The TGI in the test on SNB-19 CNS is 33.3 µM; in the test on MCF7 breast, greater than 100 µM; in the test with LOX IMVI melanoma, 75.2 µM; in the test with TK-10 renal it was 8.62 µM.
